#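 Grown in 96-well plates, cells were treated for 48 hours with each compound at five concentrations. Insufficient inhibition: endpoint recorded as highest concentration tested. Here, GI50 denotes the concentration required for 50% inhibition of growth. TGI: total growth inhibition.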
# Assays:
# Assay in all cases: NCI-60 cell line screen, 48 h
# [1] = test system: OVCAR-5 ovarian
# [2] = test system: NCI-H226 lung
# [3] = test system: OVCAR-3 ovarian
# [4] = test system: SW-620 colon
# [5] = test system: NCI-H522 lung
# [6] = test system: K-562 leukemia
# [7] = test system: HOP-62 NSCLC
# [8] = test system: U251 CNS
# [9] = test system: 786-0 renal
# [10] = test system: COLO 205 colon
SMILES,GI50 [1] [µM],TGI [1] [µM],GI50 [2] [µM],TGI [2] [µM],GI50 [3] [µM],TGI [3] [µM],GI50 [4] [µM],TGI [4] [µM],TGI [5] [µM],TGI [6] [µM],TGI [7] [µM],TGI [8] [µM],TGI [9] [µM],TGI [10] [µM]
CNCCCn1c2c(c3ccc(Cl)cc3c1=O)C(=O)c1cc(OC)cnc1-2,1.69,3.18,1.35,3.86,1.41,2.78,0.0762,1.98,,,,,,
CC1=NN(c2cccc(Cl)c2)C2(C1=Cc1cccs1)C(Cl)C(=O)N2c1nc2ccccc2s1 (stereo unspecified),,41.9,,53.5,,52,,> 100,38.2,72.4,> 100,30.7,29.1,
O=C(O)C1CC(C2CCCCN2)CN2CCCCC12 (stereo unspecified),,> 100,,> 100,,> 100,,> 100,,> 100,> 100,> 100,> 100,> 100
CCCC(=O)N(C)N=Nc1ccc(C(=O)OCC)cc1,,> 100,,> 100,,> 100,,> 100,> 100,> 100,> 100,> 100,> 100,
Cc1ccc(C(=O)O)c(/C=C2\Cc3cc(C)cc(C)c3C2=O)c1,,,,> 100,,> 100,,> 100,> 100,> 100,> 100,> 100,> 100,
COc1ccc(-c2[nH]c(-c3ccc(OC)cc3)c(-c3ccccn3)c2-c2ccccn2)cc1,,> 100,,> 100,,> 100,,> 100,,84.5,,> 100,> 100,61.1
COc1ccc(/C=C2\C[C@H]3[C@@H]4CC=C5C[C@@H](OC(C)=O)CC[C@]5(C)[C@H]4CC[C@]3(C)C2=O)cc1OC,,> 100,,> 100,,> 100,,> 100,> 100,> 100,> 100,,> 100,> 100
CCOC(=O)NC(Nc1ccc(S(=O)(=O)Nc2ccc(OC)nn2)cc1)(C(F)(F)F)C(F)(F)F,,> 100,,75.9,,55.7,,> 100,,> 100,59.6,41,59,58.7
COc1ccc(C(=O)N2CCN(c3ccc4c(c3)OCC(=O)N4)CC2)cc1OC,,> 100,,> 100,,> 100,,> 100,> 100,,> 100,> 100,> 100,> 100
COc1ccc2nc3c(C)cc4ccccc4n3c2c1,,> 100,,> 100,,> 100,,> 100,,> 100,> 100,> 100,> 100,
O=C1C(Cl)=C(N2CCN(CCOCCO)CC2)C(=O)c2ccccc21,,37.4,,31,,9.44,,3.09,3.57,> 21.7,,31,24,28.7
O=C(CSc1nnc(Cc2ccccc2)o1)Nc1ccc(Cl)cc1[N+](=O)[O-],,,,47.6,,,,53.8,9.26,98.7,31.3,34.8,31,46.4
O=[N+]([O-])c1ccc(Cc2nc3cc4ccccc4cc3[nH]2)cc1C(F)(F)F,,27.5,,,,26,,62.2,70.6,30.3,27.3,37.3,25.4,34.3
C/C(=N\Nc1nc2ccccc2o1)c1ncccn1,,19.6,,0.64,,,,28.3,22.3,,2.91,14.8,12.1,15.8
CC(C)(C)CNCCCNc1ccc(Cl)cc1,,> 100,,78.7,,,,> 100,> 100,,> 100,> 100,> 100,45.3
Cc1ccc(N=NN(C)C(C)C(O)Cc2ccccc2)cc1 (stereo unspecified),,> 100,,> 100,,> 100,,> 100,,> 100,> 100,> 100,> 100,> 100
Cc1ccc(NC(=O)CC(=O)N2N=C(N3CCCCC3)CC2c2ccccc2)cc1 (stereo unspecified),,> 100,,> 100,,> 100,,> 100,> 100,,> 100,> 100,> 100,> 100

# Reference: PubChem BioAssay (NCI)
